The values below come from paper PMC9298260, “An Immunomodulatory Peptide Dendrimer Inspired from Glatiramer Acetate” (Angewandte Chemie (International Ed. in English), 2021).

The test system of one assay is lymphocytes. Description: IL-1Ra in supernatants of lymphocytes (rest of leukocytes after Percoll), ELISA. The assay is classed as cell-based, human. As to conditions: rest of leukocytes after Percoll gradient, 50-25 µg/mL, 48 h, n = 2. The method, then: Similar donor dependent responses of cytokine release to GA have been reported for IL‐27.[38]
Figure S3. Cytokine level of IL-1Ra in supernatants of monocytes for active dendrimers and analogues evaluated by ELISA assay on primary human monocytes of healthy donors. 5×10^4 cells/200 µL in 96 well plates, were incubated with dendrimers or GA as a control for 48 h in presence or absence of LPS (100 ng/mL), in a range of concentrations (100-12.5 µg/mL) (mean ± SD, n = 3 different experiments).
Figure S4. Cytokine level of IL-1Ra in supernatants of monocytes enriched fraction (a) and the rest of leukocytes (b) for active dendrimers and analogues evaluated by ELISA assay.
Monocytes fraction was separated from whole PBMC by Percoll density gradient centrifugation. 5×10^4 cells/200 µL in 96 well plates were incubated with dendrimers or GA (50-25 µg/mL) as a control for 48 h (mean ± SD, n = 2 different experiments). […]
(In an ELISA, binding on a coated surface is turned into a signal by an enzyme label.)

The next assay has as its system IL-1Ra. Description: IL-1Ra time profile / mRNA level in monocytes, RT-qPCR. The assay is classed as cell-based, human. The note with it: 50 µg/mL, with and without LPS, without LPS detected only after 18 h. The method, then:
Figure 2 Cytokine level of IL‐1Ra in supernatants of primary human monocytes of healthy donors treated with peptide dendrimers, evaluated by ELISA (bars, left vertical axis) and mRNA levels (▴, right vertical axis). […] For mRNA levels evaluation, 2×10^6 cells 3 mL^−1 in 6 well plates were incubated with 50 μg mL^−1 dendrimer or GA for 18 h.
To assess the activity requirements for 1 and 4, we performed a structure–activity relationship (SAR) study on the level of induced IL‐1Ra release measured by immunoassay, which we verified in selected cases at the mRNA level by RT‐qPCR (Figure 2).
For closer characterization, we selected dendrimer 1 due to its smaller size and the presence of a cysteine residue that could be used for labelling. […] Furthermore, dendrimer 1 induced the release of IL‐1Ra both with and without LPS activation, but in the latter case the effect was detected only after 18 h incubation (Figure S5e/f).
Enriched monocytes after Percoll centrifugation (4×10^6 cells/3 mL well; 6-well plates) were preincubated for 1 h with or without compounds in RPMI-1640 medium supplemented with 10% heat-inactivated FBS, 50 μg/mL streptomycin, 50 U/mL penicillin, 2 mM L-glutamine, and then incubated for the indicated duration. After the incubation cells were collected, total RNA was extracted, reverse transcribed and analyzed by SYBR Green Master Mix. […]

Take “(KA)8(KAK)4(KEKA)2KAKEAYCA-NH2 [compound 1, G3 peptide dendrimer]”: the “induction of IL-1Ra in lymphocytes” value in the assay on lymphocytes is “did not occur”. For the same substance, the “release of IL-1Ra, time profile” value in the assay with IL-1Ra is “induced”.
